These compounds were tested against ACC2 (Homo sapiens, UniProt O00763) (assay: In vitro ACC2 inhibition assay (ADP-Glo)). Conditions: read-out: ACC2.
ACC2, sequence (O00763 whole entry, species assumed): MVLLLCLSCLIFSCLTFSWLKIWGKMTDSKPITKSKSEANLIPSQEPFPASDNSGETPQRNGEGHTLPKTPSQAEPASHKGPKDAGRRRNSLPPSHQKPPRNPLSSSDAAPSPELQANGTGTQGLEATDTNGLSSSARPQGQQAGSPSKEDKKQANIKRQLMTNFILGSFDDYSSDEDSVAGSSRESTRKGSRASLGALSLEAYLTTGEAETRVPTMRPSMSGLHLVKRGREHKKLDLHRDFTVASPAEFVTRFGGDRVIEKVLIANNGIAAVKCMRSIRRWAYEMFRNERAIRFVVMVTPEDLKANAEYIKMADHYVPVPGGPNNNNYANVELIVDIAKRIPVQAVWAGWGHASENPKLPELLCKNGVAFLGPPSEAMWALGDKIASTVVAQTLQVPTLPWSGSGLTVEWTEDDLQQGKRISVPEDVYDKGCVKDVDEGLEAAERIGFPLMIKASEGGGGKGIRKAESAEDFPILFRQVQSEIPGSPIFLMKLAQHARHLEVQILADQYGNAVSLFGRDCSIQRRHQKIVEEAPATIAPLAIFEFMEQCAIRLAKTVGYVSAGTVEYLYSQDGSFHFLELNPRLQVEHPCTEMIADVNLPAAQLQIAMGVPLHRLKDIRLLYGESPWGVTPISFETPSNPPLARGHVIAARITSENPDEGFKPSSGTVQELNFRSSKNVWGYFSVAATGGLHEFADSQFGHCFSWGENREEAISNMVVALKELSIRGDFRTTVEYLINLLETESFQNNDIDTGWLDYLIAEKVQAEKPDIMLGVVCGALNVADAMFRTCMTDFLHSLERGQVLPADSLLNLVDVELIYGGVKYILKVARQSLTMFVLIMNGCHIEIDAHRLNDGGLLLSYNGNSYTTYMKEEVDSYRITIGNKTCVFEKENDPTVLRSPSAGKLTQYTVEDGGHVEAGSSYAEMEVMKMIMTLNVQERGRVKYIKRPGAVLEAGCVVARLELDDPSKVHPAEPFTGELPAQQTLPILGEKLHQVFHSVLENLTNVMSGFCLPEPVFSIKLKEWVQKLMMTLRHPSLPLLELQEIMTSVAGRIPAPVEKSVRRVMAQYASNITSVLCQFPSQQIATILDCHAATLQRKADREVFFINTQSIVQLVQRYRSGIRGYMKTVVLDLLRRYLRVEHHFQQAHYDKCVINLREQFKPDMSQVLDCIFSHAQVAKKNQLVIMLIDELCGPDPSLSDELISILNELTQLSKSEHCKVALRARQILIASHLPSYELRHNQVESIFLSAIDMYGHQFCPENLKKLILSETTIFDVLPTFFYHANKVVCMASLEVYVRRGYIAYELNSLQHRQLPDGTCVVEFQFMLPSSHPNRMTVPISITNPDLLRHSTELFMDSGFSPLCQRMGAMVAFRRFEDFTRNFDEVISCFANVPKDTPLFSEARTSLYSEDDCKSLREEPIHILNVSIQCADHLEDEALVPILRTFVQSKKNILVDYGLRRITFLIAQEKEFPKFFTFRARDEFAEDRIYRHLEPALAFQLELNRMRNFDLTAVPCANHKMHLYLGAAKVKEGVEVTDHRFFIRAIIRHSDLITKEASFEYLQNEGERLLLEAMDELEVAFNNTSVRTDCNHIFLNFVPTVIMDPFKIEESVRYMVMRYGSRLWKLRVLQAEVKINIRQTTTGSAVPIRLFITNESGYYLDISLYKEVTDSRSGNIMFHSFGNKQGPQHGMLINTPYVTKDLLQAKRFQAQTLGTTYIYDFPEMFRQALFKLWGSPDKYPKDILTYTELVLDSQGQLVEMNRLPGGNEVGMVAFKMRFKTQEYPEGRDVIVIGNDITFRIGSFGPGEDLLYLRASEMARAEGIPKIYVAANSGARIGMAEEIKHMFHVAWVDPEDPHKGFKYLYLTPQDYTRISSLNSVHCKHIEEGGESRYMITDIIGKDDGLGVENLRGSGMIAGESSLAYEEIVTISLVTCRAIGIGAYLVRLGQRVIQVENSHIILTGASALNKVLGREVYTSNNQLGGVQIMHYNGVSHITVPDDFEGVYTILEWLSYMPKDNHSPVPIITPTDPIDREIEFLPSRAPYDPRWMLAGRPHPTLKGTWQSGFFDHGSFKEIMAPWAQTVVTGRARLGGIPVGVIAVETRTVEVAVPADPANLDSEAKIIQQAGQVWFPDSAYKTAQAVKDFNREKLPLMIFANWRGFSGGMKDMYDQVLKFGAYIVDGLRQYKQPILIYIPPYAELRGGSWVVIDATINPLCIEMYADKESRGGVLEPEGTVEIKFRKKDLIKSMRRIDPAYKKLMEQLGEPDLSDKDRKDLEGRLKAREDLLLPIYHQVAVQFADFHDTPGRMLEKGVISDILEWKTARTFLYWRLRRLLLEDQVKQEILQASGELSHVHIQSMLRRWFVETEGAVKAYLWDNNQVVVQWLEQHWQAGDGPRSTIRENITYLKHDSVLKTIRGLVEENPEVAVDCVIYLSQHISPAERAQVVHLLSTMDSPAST
Format: biochemical
In short: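 Enzyme (human ACC1 or ACC2) and compound, serially diluted 1:3 over 11 points from a 600 uM DMSO stock, were preincubated 15 min before substrate addition.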
Work on COCc1ccccc1[C@H](Cn1c(=O)n(C(C)(C)C(=O)O)c(=O)c2c(C)c(-c3ncco3)sc21)OC1CCOCC1 [I-293, 2-[1-[(2R)-2-[2-(methoxymethyl)phenyl]-2-(oxan-4-yloxy)ethyl]-5-methyl-6-(1,3-oxazol-2-yl)-2,4-dioxo-1H,2H,3H,4H-thieno[2,3-d]pyrimidin-3-yl]-2-methylpropanoic acid] yielded an IC50 of less than 0.1 µM.
With Cc1c(-c2ncco2)sc2c1c(=O)n(C(C)(C)C(=O)O)c(=O)n2C[C@H](OC1CCC(C)(C)CC1)c1ccccc1 [I-148, 2-[1-[(2R)-2-[(4,4-dimethylcyclohexyl)oxy]-2-phenylethyl]-5-methyl-6-(1,3-oxazol-2-yl)-2,4-dioxo-1H,2H,3H,4H-thieno[2,3-d]pyrimidin-3-yl]-2-methylpropanoic acid] the IC50 was less than 5 µM.
CCOC(=O)c1sc2c(c1C)c(=O)n(CC(=O)O)c(=O)n2CC(OC)c1ccccc1 (stereo not shown) [I-67, 2-[6-(ethoxycarbonyl)-1-(2-methoxy-2-phenylethyl)-5-methyl-2,4-dioxo-1H,2H,3H,4H-thieno[2,3-d]pyrimidin-3-yl]acetic acid] was tested, and the IC50 was less than 5 µM.
With [2H]c1ccc(CCn2c(=O)n(CC(=O)O)c(=O)c3c(C)c(C(=O)OCC)sc32)cc1 [I-66, 2-(1-(4-deuterophenethyl)-6-(ethoxycarbonyl)-5-methyl-2,4-doxo-1,2-dihydrothieno[2,3-d]pyrimidin-3(4H)-yl)acetic acid] the IC50 was less than 5 µM.
Cc1c(-c2ncco2)sc2c1c(=O)n(C(C)(C)C(=O)O)c(=O)n2C[C@H](O[C@H]1CCC[C@H](O)C1)c1ccccc1 [I-172, 2-(1-((R)-2-(((1S,3S)-3-hydroxycyclohexyl)oxy)-2-phenylethyl)-5-methyl-6-(oxazol-2-yl)-2,4-dioxo-1,2-dihydrothieno[2,3-d]pyrimidin-3(4H)-yl)-2-methylpropanoic acid] showed an IC50 of less than 1 µM.
CCOC(=O)c1sc2c(c1C)c(=O)n(CCOC)c(=O)n2CCc1ccccc1 [I-6, ethyl 3-(2-methoxyethyl)-5-methyl-2,4-dioxo-1-(2-phenylethyl)-1H,2H,3H,4H-thieno[2,3-d]pyrimidine-6-carboxylate] gave an IC50 of 20 to 50 µM.
In the case of CCOC(=O)c1sc2c(c1C)c(=O)n(CCCCO)c(=O)n2CCc1ccccc1 [I-34, ethyl 3-(4-hydroxybutyl)-5-methyl-2,4-dioxo-1-(2-phenylethyl)-1H,2H,3H,4H-thieno[2,3-d]pyrimidine-6-carboxylate], the IC50 is reported as 5 to 20 µM.
With Cc1c(C2CCC2)sc2c1c(=O)n(C(C)(C)C(=O)O)c(=O)n2CCc1ccccc1 [I-125, 2-[6-cyclobutyl-5-methyl-2,4-dioxo-1-(2-phenylethyl)-1H,2H,3H,4H-thieno[2,3-d]pyrimidin-3-yl]-2-methylpropanoic acid] the IC50 was 5 to 20 µM.
CCOC(=O)c1sc2c(c1C)c(=O)n(C(C)(C)C(=O)O)c(=O)n2C[C@@H](OC(C)(C)C)c1ccccc1 [I-128, 2-[1-[(2S)-2-(tert-butoxy)-2-phenylethyl]-6-(ethoxycarbonyl)-5-methyl-2,4-doxo-1H,2H,3H,4H-thieno[2,3-d]pyrimidin-3-yl]-2-methylpropanoic acid] showed an IC50 of 20 to 50 µM.
Compound CCOC(=O)c1sc2c(c1C)c(=O)n(CCO)c(=O)n2CCC1CCCCC1 [I-28] has an IC50 greater than 50 µM.
Cc1csc2c1c(=O)n(CCO)c(=O)n2CCc1ccccc1 [I-58] showed an IC50 greater than 50 µM.
Work on Cc1c(-c2ncco2)sc2c1c(=O)n(C(C)(C)C(=O)O)c(=O)n2CCOC(C)C [I-234, 2-methyl-2-[5-methyl-6-(1,3-oxazol-2-yl)-2,4-dioxo-1-[2-(propan-2-yloxy)ethyl]-1H,2H,3H,4H-thieno[2,3-d]pyrimidin-3-yl]propanoic acid] yielded an IC50 of less than 5 µM.
CCOC(=O)c1sc2c(c1C)c(=O)n(CCO)c(=O)n2CCc1cc(F)cc(F)c1 [I-29, ethyl 1-[2-(3,5-difluorophenyl)ethyl]-3-(2-hydroxyethyl)-5-methyl-2,4-dioxo-1H,2H,3H,4H-thieno[2,3-d]pyrimidine-6-carboxylate] gave an IC50 greater than 50 µM.
Work on CCOC(=O)c1sc2c(c1C)c(=O)n(C(C)(C)C(N)=O)c(=O)n2CCc1ccccc1 [I-107, ethyl 3-(1-carbamoyl-1-methylethyl)-5-methyl-2,4-dioxo-1-(2-phenylethyl)-1H,2H,3H,4H-thieno[2,3-d]pyrimidine-6-carboxylate] yielded an IC50 of less than 5 µM.
With COc1ccccc1[C@@H](Cn1c(=O)n(C(C)(C)C(=O)O)c(=O)c2c(C)c(-c3ncco3)sc21)OC1COC1 [I-262, (S)-2-(1-(2-(2-methoxyphenyl)-2-(oxetan-3-yloxy)ethyl)-5-methyl-6-(oxazol-2-yl)-2,4-dioxo-1,2-dihydrothieno[2,3-d]pyrimidin-3(4H)-yl)-2-methylpropanoic acid] the IC50 was less than 5 µM.
Work on CCOC(=O)c1sc2c(c1C)c(=O)n(CCO)c(=O)n2CCc1nc2ccccc2s1 [I-44] yielded an IC50 greater than 50 µM.
For Cc1c(-c2ncco2)sc2c1c(=O)n(C(C)(C)C(=O)O)c(=O)n2C[C@H](OCc1ccccc1)c1ccccc1 [I-136, 2-[1-[(2R)-2-(benzyloxy)-2-phenylethyl]-5-methyl-6-(1,3-oxazol-2-yl)-2,4-dioxo-1H,2H,3H,4H-thieno[2,3-d]pyrimidin-3-yl]-2-methylpropanoic acid], the IC50 was less than 5 µM.
Work on CCOCc1sc2c(c1C)c(=O)n(CCO)c(=O)n2CCc1ccccc1 [I-38, 6-(ethoxymethyl)-3-(2-hydroxyethyl)-5-methyl-1-(2-phenylethyl)-1H,2H,3H,4H-thieno[2,3-d]pyrimidine-2,4-dione] yielded an IC50 greater than 50 µM.
CCOC(=O)c1sc2c(c1C)c(=O)n(C(C)(C)C(=O)O)c(=O)n2CCc1ccccc1O [I-99, 2-[6-(ethoxycarbonyl)-1-[2-(2-hydroxyphenyl)ethyl]-5-methyl-2,4-dioxo-1H,2H,3H,4H-thieno[2,3-d]pyrimidin-3-yl]-2-methylpropanoic acid] was tested, and the IC50 was less than 5 µM.
Compound CCOC(=O)c1sc2c(c1C)c(=O)n(CCO)c(=O)n2Cc1csc(C)n1 [I-35] has an IC50 greater than 50 µM.
In the case of Cc1c(-c2ncco2)sc2c1c(=O)n(C(C)(C)C(=O)O)c(=O)n2C[C@H](O[C@H]1CC[C@@H](N)CC1)c1ccccc1 [I-167, 2-(1-((R)-2-(((1s,4S)-4-aminocyclohexyl)oxy)-2-phenylethyl)-5-methyl-6-(oxazol-2-yl)-2,4-dioxo-1,2-dihydrothieno[2,3-d]pyrimidin-3(4H)-yl)-2-methylpropanoic acid], the IC50 is reported as less than 5 µM.
Compound O=C(O)Cn1c(=O)c2c3c(sc2n(CC(=O)c2ccccc2)c1=O)CCCC3 [I-2] has an IC50 greater than 50 µM.
Cc1c(-c2ncco2)sc2c1c(=O)n(C(C)(C)C(=O)O)c(=O)n2C[C@H](OCCO)c1ccccc1 [I-169, 2-[1-[(2R)-2-(2-hydroxyethoxy)-2-phenylethyl]-5-methyl-6-(1,3-oxazol-2-yl)-2,4-dioxo-1H,2H,3H,4H-thieno[2,3-d]pyrimidin-3-yl]-2-methylpropanoic acid] gave an IC50 of less than 0.1 µM.
Compound Cc1c(-n2ccnc2)sc2c1c(=O)n(C(C)(C)C(=O)O)c(=O)n2CCc1ccccc1 [I-118, 2-[6-(1H-imidazol-1-yl)-5-methyl-2,4-dioxo-1-(2-phenylethyl)-1H,2H,3H,4H-thieno[2,3-d]pyrimidin-3-yl]-2-methylpropanoic acid] has an IC50 of 20 to 50 µM.
CCOC(=O)c1sc2c(c1C)c(=O)n(CCO)c(=O)n2CCc1ccc(Cl)cc1 [I-17] was tested, and the IC50 was greater than 50 µM.
Work on CCOC(=O)c1sc2c(c1C)c(=O)n(CCO)c(=O)n2Cc1ccc2[nH]ccc2c1 [I-51, ethyl 3-(2-hydroxyethyl)-1-(1H-indol-5-ylmethyl)-5-methyl-2,4-dioxo-1H,2H,3H,4H-thieno[2,3-d]pyrimidine-6-carboxylate] yielded an IC50 greater than 50 µM.
Work on Cc1c(-c2ncco2)sc2c1c(=O)n(C(C)(C)C(=O)O)c(=O)n2C[C@H](O[C@H]1CC[C@H](N)CC1)c1ccccc1 [I-166, 2-(1-((R)-2-(((1r,4R)-4-aminocyclohexyl)oxy)-2-phenylethyl)-5-methyl-6-(oxazol-2-yl)-2,4-dioxo-1,2-dihydrothieno[2,3-d]pyrimidin-3(4H)-yl)-2-methylpropanoic acid] yielded an IC50 of less than 1 µM.
Cc1c(-c2ncco2)sc2c1c(=O)n(C(C)(C)C(=O)O)c(=O)n2CCC1CCCCC1 [I-176, 2-[1-(2-cyclohexylethyl)-5-methyl-6-(1,3-oxazol-2-yl)-2,4-dioxo-1H,2H,3H,4H-thieno[2,3-d]pyrimidin-3-yl]-2-methylpropanoic acid] was tested, and the IC50 was less than 5 µM.
For CCOC(=O)c1sc2c(c1C)c(=O)n(CCO)c(=O)n2CC [I-11, ethyl 1-ethyl-3-(2-hydroxyethyl)-5-methyl-2,4-dioxo-1H,2H,3H,4H-thieno[2,3-d]pyrimidine-6-carboxylate], the IC50 was greater than 50 µM.
With CCOC(=O)c1sc2c(c1C)c(=O)n(C(C)(C)C(N)=O)c(=O)n2C[C@@H](OC(C)C)c1ccccc1 [I-114, ethyl 3-(1-carbamoyl-1-methylethyl)-5-methyl-2,4-dioxo-1-[(2S)-2-phenyl-2-(propan-2-yloxy)ethyl]-1H,2H,3H,4H-thieno[2,3-d]pyrimidine-6-carboxylate] the IC50 was 20 to 50 µM.
Cc1c(-c2ncco2)sc2c1c(=O)n(CC#N)c(=O)n2C[C@H](OC(C)C)c1ccccc1 [I-142, 2-(1-((R)-2-Isopropoxy-2-phenylethyl)-5-methyl-6-(oxazol-2-yl)-2,4-dioxo-1,2-dihydrothieno[2,3-d]pyrimidin-3(4H)-yl)acetonitrile] was tested, and the IC50 was less than 1 µM.
CCOC(=O)c1sc2c(c1C)c(=O)n(CC(=O)O)c(=O)n2C[C@@H](OC)c1ccccc1 [I-104, 2-[6-(ethoxycarbonyl)-1-[(2S)-2-methoxy-2-phenylethyl]-5-methyl-2,4-dioxo-1H,2H,3H,4H-thieno[2,3-d]pyrimidin-3-yl]acetic acid] gave an IC50 of 20 to 50 µM.
Compound Cc1c(-c2ncco2)sc2c1c(=O)n(C(C)(C)C(=O)O)c(=O)n2C[C@H](OC1CCC(F)(F)CC1)c1ccccc1 [I-155, 2-[1-[(2R)-2-[(4,4-difluorocyclohexyl)oxy]-2-phenylethyl]-5-methyl-6-(1,3-oxazol-2-yl)-2,4-dioxo-1H,2H,3H,4H-thieno[2,3-d]pyrimidin-3-yl]-2-methylpropanoic acid] has an IC50 of less than 1 µM.
Work on Cc1c(C(=O)OCCO)sc2c1c(=O)n(CCO)c(=O)n2CCc1ccccc1 [I-42, 2-hydroxyethyl 3-(2-hydroxyethyl)-5-methyl-2,4-dioxo-1-(2-phenylethyl)-1H,2H,3H,4H-thieno[2,3-d]pyrimidine-6-carboxylate] yielded an IC50 of 20 to 50 µM.

From patent publication US9453026B2, “ACC inhibitors and uses thereof” (Gilead Apollo, Inc., priority 2011, dated 2016)
